The nature of series [1]: Potentiometric titration of peptides with CuCl2: Cu(II) binding constants and competitivity index at pH 7.4. It is filed as physicochemical. As to conditions: 25 °C, I=0.1 (KNO3); for CI7.4 (competitivity index, log K CuZ): calculated at pH 7.4 for 1 mM Cu(II), peptide L and virtual competitive ligand Z from potentiometric stability constants; for log *K4N (protonation-corrected stability constant of Cu(II) 4N complex): log β{CuHn-4L} – log β{HnL}; for log β CuH-1L / log β CuH-2L / log β CuL / log β CuH-3L / log β CuHL: 1 mM peptide, Cu:peptide 1:1, 1:2, 1:3. As to the method:
(§1) Key factors for the investigation of the biological activity of metal complexes are the complex stability and the detection of the active species at a physiological pH value of 7.4.[27] Thus, potentiometric titration experiments of peptides a–g (b) alone and in the presence of CuCl2 (logarithmic protonation (log β) and protonation‐corrected Cu(II) binding constants (log *K)) and pH‐metric UV/VIS and CD spectroscopic measurements of 1–7 (2 [26]) were carried out (S‐5).
(§2) S-5 Protonation and complex stability constants
(§3) All bioanalytical experiments (DNA cleavage, DNA binding and ROS detection studies) and cell studies (cytotoxicity and cellular uptake) were carried out at pH 7.4. To characterize the speciation of the ATCUN metallopeptides at this pH, potentiometric titrations in combination with UV/VIS and CD spectroscopy were carried out for 1 and 3-7.
(§4) S-5.1 Potentiometry, UV/VIS and circular dichroism (CD) spectroscopy […]
(§5) Potentiometric titrations were performed on a 907 Titrando Automatic Titrator (Metrohm) using a Biotrode combined glass electrode (Metrohm), calibrated daily by nitric acid titrations with the use of standardized 100 mM NaOH (carbon dioxide-free) as a […]
Stock solution preparation:
Stock solutions of peptides a and c–g for UV/VIS and CD experiments were prepared by dissolving given amounts of peptides in carbon dioxide-free Milli-Q® water.
Samples (1.5 mL volume, 1 mM peptide) were prepared in 4 mM HNO3/96 mM KNO3 solution. To calculate ligand (peptide) concentrations and their protonation constants, at least three consecutive potentiometric titrations were performed.
Three samples (1.5 mL) of 1 mM peptide and CuCl2 with Cu : peptide ratios of 1:1, 1:2 and 1:3 were prepared in 4 mM HNO3/96 mM KNO3. Each sample was titrated separately using a standardized 100 mM NaOH solution. The pH range for all potentiometric […]
All ligand and complex titrations were performed under argon at 25 °C. The data was analyzed using the SUPERQUAD and HYPERQUAD programs.
For the determination of Cu(II) stability constants, peptides a and c–g UV/VIS spectra were recorded in a range of 250–900 nm with a scan resolution of 1 nm, and a scan speed of 0.5 s/nm on a Lambda 950 UV/VIS/NIR spectrophotometer (PerkinElmer). The samples of 1 mM peptide/0.8 mM CuCl2 were prepared in 1 cm path length quartz cuvettes (Hellma) and titrated with small amounts of concentrated NaOH solution. Usually the pH-metric titration spanned from pH 2.9 to pH 12.5. […]
(§6) Table S5. Logarithmic protonation and Cu(II) binding constants (log β and pK) of peptides a-g (b not measured), determined by potentiometry at 25 °C and I=0.1 (KNO3), and competitivity index (CI) values calculated at pH 7.4 for 1 mM Cu(II) and peptides based on respective stability constants.
(§7) Statistical errors on the last digits of log β values, provided by HYPERQUAD, are given in parentheses. […]
(§8) log β pK log β pK log β pK log β pK log β pK log β pK
CuH3L - - - - - - - - - -
CI: Competitivity index calculated for pH 7.4 and peptide L, Cu(II) and Z concentrations of 0.001 M. CI is log KCuZ fulfilling the condition Σijk([CuiHjLk]=[CuZ].3 log *K4N is a protonation-corrected stability constant allowing to compare peptides with different protonation states forming the same type of complexes In general log*KxN, where x stand for number of coordinated nitrogens can be described by log *KxN = log β{CuHn-xL} – log β{HnL} HnL stands for the protonation of coordinating histidine (in position 3 from N-terminus in case of ATCUN motifs) […]
Peptides can be compared easily between each other using both protonation-corrected stability constant (log *K4N) and Competitivity Index at pH 7.4 (CI7.4):
(§9) For log *K4N, the higher the number (less negative value) the higher stability of Cu(II) complexes (only relative meaning – no interpretation of concentrations of species possible).
For CI7.4, the higher the number the higher the stability. […]

Series [2] in a line: Potentiometric titration of peptides: protonation constants. The class given is physicochemical. As to conditions: protonation constant, potentiometry, 1 mM peptide, error on last digit in parentheses; for log β H2L / log β H3L / log β HL: 25 °C, I=0.1 (KNO3). Here is the method: as §1, §2, §3, §4, §5
Stock solution preparation: […]
Samples (1.5 mL volume, 1 mM peptide) were prepared in 4 mM HNO3/96 mM KNO3 solution. To calculate ligand (peptide) concentrations and their protonation constants, at least three consecutive potentiometric titrations were performed. […]
The pH range for all potentiometric
All ligand and complex titrations were performed under argon at 25 °C. The data was analyzed using the SUPERQUAD and HYPERQUAD programs. […]
as §6, §7, §8
CuH3L - - - - - - - - - - […]
as §9
For CI7.4, the higher the number the higher the stability. CI is the affinity constant for the imaginary CuZ complex which is equivalent in strength to the probed complex/set of complexes. The advantage of CI is that its unit is M-1, and can be compared with log K values for real complexes.

The mark [3] stands for this setting: potentiometry, error on last digit in parentheses.

Where a SMILES comes first, the peptide text is derived from it. Where no end group is shown, it is not given here. [ ]: non-standard residue; d: D form. βAla = NCCC(=O)O

Consider `NCCCC[C@H](NC(=O)[C@H](Cc1c[nH]cn1)NC(=O)CCNC(=O)[C@@H](N)CCCCN)C(=O)N[C@@H](CO)C(=O)N[C@@H](CO)C(N)=O` [d] (H-K[βAla]HKSS-NH2), for which, in series [1] (Cu(II) species, potentiometry), the “pK CuH-1L” value stood at 10.00, the “pK CuH-2L” value stood at 10.41 and the “pK CuL” value was 5.13. In addition, the “CI7.4 (competitivity index, log K CuZ)” value in series [1] was 10.31. Also, the “log *K4N (protonation-corrected stability constant of Cu(II) 4N complex)” value (“log *K4N” below) in series [1] (potentiometry) is reported as -17.537. Also, in series [1] (setting [3]), the “log β CuH-1L” value is given as 6.337(8), the “log β CuH-2L” value is given as -4.068(6) and the “log β CuL” value is on record as 16.338(4). In addition, in series [1] (potentiometry, 4 mM HNO3/96 mM KNO3, 1 mM peptide, Cu:peptide 1:1, 1:2, 1:3, pH 2.7-11.6, argon, error on last digit in parentheses), the “log β CuH2L” value is on record as 26.604(9). The “log β H4L” value in series [2] (4 mM HNO3/96 mM KNO3, 25 °C, I=0.1, argon, at least three titrations) is reported as 33.875(4). In series [2], the “log β H2L” value was 20.563(2), the “log β H3L” value was 27.860(3) and the “log β HL” value is 10.656(3).
Regarding GGHGSS-NH2 [a], the “pK CuH-3L” value in series [1] (Cu(II) species, potentiometry) is on record as 11.79. For the same compound, in series [1], the “CI7.4 (competitivity index, log K CuZ)” value was 13.61. Further, the “log *K4N” value in series [1] (potentiometry) is on record as -14.747. In series [1] (setting [3]), the “log β CuH-2L” value is -0.587(5) and the “log β CuH-3L” value is -12.38(2). Also, in series [2], the “log β H2L” value is on record as 14.160(2) and the “log β HL” value is 7.853(1).
For `NCCCC[C@H](NC(=O)[C@H](Cc1c[nH]cn1)NC(=O)CCNC(=O)[C@@H](N)Cc1c[nH]c2ccccc12)C(=O)N[C@@H](CO)C(=O)N[C@@H](CO)C(N)=O` [g] (H-W[βAla]HKSS-NH2), in series [1] (Cu(II) species, potentiometry), the “pK CuH-1L” value is listed as 4.82 and the “pK CuH-2L” value was determined as 10.10. Further, the “CI7.4 (competitivity index, log K CuZ)” value in series [1] was 11.29. Moreover, the “log *K4N” value in series [1] (potentiometry) is given as -16.738. Moreover, in series [1] (setting [3]), the “log β CuH-1L” value is on record as 7.108(5), the “log β CuH-2L” value was -2.987(9) and the “log β CuHL” value is 16.75(1). Moreover, in series [2], the “log β H2L” value is 17.755(5), the “log β H3L” value is 23.846(5) and the “log β HL” value is recorded as 10.255(3).
With `NCCCC[C@H](N)C(=O)NCCC(=O)N[C@@H](Cc1c[nH]cn1)C(=O)N[C@@H](Cc1c[nH]c2ccccc12)C(=O)N[C@@H](CO)C(=O)N[C@@H](CO)C(N)=O` [f] (H-K[βAla]HWSS-NH2), in series [1] (Cu(II) species, potentiometry), the “pK CuH-1L” value is 5.06, the “pK CuH-2L” value was determined as 10.12 and the “pK CuH-3L” value was 11.17. In addition, the “CI7.4 (competitivity index, log K CuZ)” value in series [1] is listed as 10.52. The “log *K4N” value in series [1] (potentiometry) was -17.435. Further, in series [1] (setting [3]), the “log β CuH-1L” value was 6.280(3), the “log β CuH-2L” value is on record as -3.840(7), the “log β CuH-3L” value is reported as -15.007(8) and the “log β CuHL” value is listed as 16.406(9). Also, in series [2], the “log β H2L” value is reported as 17.632(4), the “log β H3L” value was 23.715(5) and the “log β HL” value was 10.262(3).
With `NCC(=O)NCCC(=O)N[C@@H](Cc1c[nH]cn1)C(=O)NCC(=O)N[C@@H](CO)C(=O)N[C@@H](CO)C(N)=O` [Peptide c] (H-G[βAla]HGSS-NH2), in series [1] (Cu(II) species, potentiometry), the “pK CuH-2L” value is 5.65 and the “pK CuH-3L” value worked out at 10.4. In addition, in series [1], the “CI7.4 (competitivity index, log K CuZ)” value is 9.915. In addition, in series [1] (potentiometry), the “log *K4N” value is on record as -18.426. For the same compound, in series [1] (setting [3]), the “log β CuH-2L” value is on record as -4.160(5), the “log β CuH-3L” value was -14.560(8) and the “log β CuL” value is 7.137(5). Further, in series [2], the “log β H2L” value is given as 14.266(3) and the “log β HL” value is listed as 8.001(2).
As for `NC(=O)[C@H](CO)NC(=O)[C@H](CO)NC(=O)[C@H](Cc1c[nH]c2ccccc12)NC(=O)[C@H](Cc1c[nH]cn1)NC(=O)CCNC(=O)[C@@H](N)Cc1c[nH]c2ccccc12` [e] (H-W[βAla]HWSS-NH2), in series [1] (Cu(II) species, potentiometry), the “pK CuH-2L” value came out at 4.92 and the “pK CuH-3L” value is given as 11.58. Further, the “CI7.4 (competitivity index, log K CuZ)” value in series [1] is recorded as 11.28. Also, the “log *K4N” value in series [1] (potentiometry) was -16.804. In series [1] (setting [3]), the “log β CuH-2L” value is recorded as -3.104(3), the “log β CuH-3L” value is listed as -14.683(9) and the “log β CuL” value is recorded as 6.743(7). In series [2], the “log β H2L” value is 13.700(3) and the “log β HL” value is 7.584(3).

The record behind these values is publication PMC9299640, “Incorporation of β‐Alanine in Cu(II) ATCUN Peptide Complexes Increases ROS Levels, DNA Cleavage and Antiproliferative Activity” (Chemistry (Weinheim an Der Bergstrasse, Germany), 2021).
